We go through eleven compounds from US9539260B2, “Dihydro-benzo-oxazine and dihydro-pyrido-oxazine derivatives” (Novartis AG, priority 2012, dated 2017).

Assay [1] addresses PI3K alpha (Homo sapiens (Human), UniProt P42336). Briefly: Enzymatic PI3K alpha isoform inhibition (lipid kinase activity, Kinase-Glo luminescence). To be noted: Enzymatic assay. It is filed as biochemical. The procedure: (§1) 1.1 Test of Lipid Kinase Activity […]
(§2) In a more preferred assay, the kinase reaction is performed in a final volume of 10 μl per well of a low volume non-binding CORNING, 384 well black plate (Cat. No. #3676). The final concentrations of ATP and phosphatidyl inositol (PI) in the assay are 1 μM and 10 μg/mL, respectively. The reaction is started by the addition of ATP.
(§3) The components of the assay are added per well as follows:
(§4) The Z′ value is a universal measurement of the robustness of an assay. A Z′ between 0.5 and 1.0 is considered an excellent assay.
(§5) IC50 is determined by a four parameter curve fitting routine that comes along with “excel fit”. A four parameter logistic equation is used to calculate IC50 values (IDBS XLfit) of the percentage inhibition of each compound at 8 concentrations (usually 10, 3.0, 1.0, 0.3, 0.1, 0.030, 0.010 and 0.003 μM). Alternatively, IC50 values are calculated using idbsXLfit model 204, which is a 4 parameter logistic model.
(§6) Yet alternatively, for an ATP depletion assay, compounds of the formula I to be tested are dissolved in DMSO and directly distributed into a white 384-well plate at 0.5 μl per well. To start the reaction, 10 μl of 10 nM PI3 kinase and 5 μg/mL 1-alpha-phosphatidylinositol (PI) are added into each well followed by 10 μl of 2 μM ATP. The reaction is performed until approx 50% of the ATP is depleted, and then stopped by the addition of 20 μl of Kinase-Glo solution (Promega Corp., Madison, Wis., USA). The stopped reaction is incubated for 5 minutes and the remaining ATP is then detected via luminescence. IC50 values are then determined.
On the technique in general: Kinase-Glo reads ATP consumption through a luciferase reaction.

Assay [2] has as its target PI3K delta (Homo sapiens (Human), UniProt O00329). Nature of the assay: Enzymatic PI3K delta isoform inhibition (lipid kinase activity, Kinase-Glo luminescence). Conditions: Enzymatic assay. It is filed as biochemical. The procedure:
as §1, §2, §3, §4, §5, §6

Sequence of PI3K delta (O00329 other isoform, or with tags, fused parts or gaps linker GGGGGG): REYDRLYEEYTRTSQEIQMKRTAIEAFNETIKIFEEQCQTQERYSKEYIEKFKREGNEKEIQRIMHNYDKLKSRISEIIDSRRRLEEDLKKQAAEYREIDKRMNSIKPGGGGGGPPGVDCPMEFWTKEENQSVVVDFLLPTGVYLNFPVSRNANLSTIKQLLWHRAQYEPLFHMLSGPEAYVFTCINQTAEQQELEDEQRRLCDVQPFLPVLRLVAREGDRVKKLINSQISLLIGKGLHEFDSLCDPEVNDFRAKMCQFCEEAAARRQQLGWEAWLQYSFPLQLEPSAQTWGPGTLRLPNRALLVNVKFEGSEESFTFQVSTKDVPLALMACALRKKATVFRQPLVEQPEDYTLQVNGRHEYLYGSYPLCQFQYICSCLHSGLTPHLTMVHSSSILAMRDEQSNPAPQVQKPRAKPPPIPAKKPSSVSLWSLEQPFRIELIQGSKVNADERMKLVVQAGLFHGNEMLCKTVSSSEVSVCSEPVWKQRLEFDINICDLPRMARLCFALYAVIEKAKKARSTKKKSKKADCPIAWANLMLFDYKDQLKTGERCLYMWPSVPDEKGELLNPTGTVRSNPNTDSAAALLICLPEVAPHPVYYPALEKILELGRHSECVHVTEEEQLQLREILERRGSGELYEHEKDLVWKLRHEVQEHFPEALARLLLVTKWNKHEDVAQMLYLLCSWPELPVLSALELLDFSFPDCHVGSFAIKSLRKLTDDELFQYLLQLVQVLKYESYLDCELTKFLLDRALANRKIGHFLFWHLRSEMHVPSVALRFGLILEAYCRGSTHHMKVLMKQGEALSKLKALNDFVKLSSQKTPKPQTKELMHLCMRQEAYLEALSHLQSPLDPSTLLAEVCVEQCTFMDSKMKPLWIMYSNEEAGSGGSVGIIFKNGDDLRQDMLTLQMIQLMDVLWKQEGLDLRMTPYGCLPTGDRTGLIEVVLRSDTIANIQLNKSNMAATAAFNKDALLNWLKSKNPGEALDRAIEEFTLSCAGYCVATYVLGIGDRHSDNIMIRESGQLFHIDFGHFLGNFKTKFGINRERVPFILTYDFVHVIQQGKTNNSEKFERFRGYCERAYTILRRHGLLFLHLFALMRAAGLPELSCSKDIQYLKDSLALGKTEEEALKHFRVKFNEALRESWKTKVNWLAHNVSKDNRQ
Sequence of PI3K alpha (P42336 other isoform, or with tags, fused parts or gaps): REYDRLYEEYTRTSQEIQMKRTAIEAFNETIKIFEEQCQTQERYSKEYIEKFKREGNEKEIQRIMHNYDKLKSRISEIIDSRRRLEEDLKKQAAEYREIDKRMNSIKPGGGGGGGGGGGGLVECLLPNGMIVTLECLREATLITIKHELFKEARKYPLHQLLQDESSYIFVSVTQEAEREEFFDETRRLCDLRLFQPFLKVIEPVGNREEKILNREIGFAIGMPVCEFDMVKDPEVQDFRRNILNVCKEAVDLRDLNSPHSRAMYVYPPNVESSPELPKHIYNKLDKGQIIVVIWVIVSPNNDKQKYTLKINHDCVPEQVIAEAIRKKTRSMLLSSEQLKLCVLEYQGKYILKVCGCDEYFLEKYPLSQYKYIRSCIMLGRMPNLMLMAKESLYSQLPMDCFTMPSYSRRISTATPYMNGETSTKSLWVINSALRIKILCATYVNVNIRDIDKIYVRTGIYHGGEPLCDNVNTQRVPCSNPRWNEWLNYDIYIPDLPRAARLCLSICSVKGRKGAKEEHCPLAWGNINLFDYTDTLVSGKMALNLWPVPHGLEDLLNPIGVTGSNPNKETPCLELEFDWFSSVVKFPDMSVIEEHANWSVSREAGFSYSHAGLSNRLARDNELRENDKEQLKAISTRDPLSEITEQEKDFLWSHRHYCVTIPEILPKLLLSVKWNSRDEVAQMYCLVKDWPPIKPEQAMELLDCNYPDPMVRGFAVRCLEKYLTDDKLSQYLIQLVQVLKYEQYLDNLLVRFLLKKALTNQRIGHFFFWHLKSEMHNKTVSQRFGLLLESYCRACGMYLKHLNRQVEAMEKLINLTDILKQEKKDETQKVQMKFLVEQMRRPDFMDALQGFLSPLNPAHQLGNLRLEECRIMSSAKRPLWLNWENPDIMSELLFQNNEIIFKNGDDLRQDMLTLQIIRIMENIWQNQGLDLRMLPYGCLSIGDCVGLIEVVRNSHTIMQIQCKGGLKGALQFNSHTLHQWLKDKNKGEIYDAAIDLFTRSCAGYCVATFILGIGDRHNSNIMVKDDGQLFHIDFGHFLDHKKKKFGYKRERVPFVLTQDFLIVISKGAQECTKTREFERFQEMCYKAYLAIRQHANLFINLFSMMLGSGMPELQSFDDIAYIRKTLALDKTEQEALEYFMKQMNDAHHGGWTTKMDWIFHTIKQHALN

On to `CCC(=O)N1CC[C@H](Oc2ccc3c(c2)N(c2cncc(C#N)c2)CCO3)C1` [Example A32, 5-[6-((S)-1-Propionyl-pyrrolidin-3-yloxy)-2,3-dihydro-benzo[1,4]oxazin-4-yl]-nicotinonitrile], for which the IC50 (in general, the concentration needed to halve the response being measured) worked out at 3200 nM in assay [1] and 74 nM in assay [2].
For `COc1cncc(N2CCOc3ccc(O[C@H]4CCN(C(=O)C5CCOCC5)C4)cc32)c1` [Example A33, {(S)-3-[4-(5-Methoxy-pyridin-3-yl)-3,4-dihydro-2H-benzo[1,4]oxazin-6-yloxy]-pyrrolidin-1-yl}-(tetrahydro-pyran-4-yl)-methanone], the figures for the IC50 in assay [1] and in assay [2] were 1700 nM and 85 nM, respectively.
The corresponding values for `O=C(C1CCOCC1)N1CC[C@H](Oc2ccc3c(c2)N(c2cncc(Cl)c2)CCO3)C1` [Example A34, {(S)-3-[4-(5-Chloro-pyridin-3-yl)-3,4-dihydro-2H-benzo[1,4]oxazin-6-yloxy]-pyrrolidin-1-yl}-(tetrahydro-pyran-4-yl)-methanone] are 773 nM and 9 nM.
`CCC(=O)N1CC[C@H](Oc2ccc3c(c2)N(c2ccc(OC)c(OC)c2)CCO3)C1` [Example A35, 1-{(S)-3-[4-(3,4-Dimethoxy-phenyl)-3,4-dihydro-2H-benzo[1,4]oxazin-6-yloxy]-pyrrolidin-1-yl}-propan-1-one]: the IC50 in assay [1] is 5590 nM; in assay [2], 1420 nM.
As to `CCC(=O)N1CC[C@H](Oc2ccc3c(c2)N(c2cnc4ccccc4c2)CCO3)C1` [Example A36, 1-[(S)-3-(4-Quinolin-3-yl-3,4-dihydro-2H-benzo[1,4]oxazin-6-yloxy)-pyrrolidin-1-yl]-propan-1-one], the IC50 in assay [1] was 1270 nM; in assay [2] it was 78 nM.
As for `CCC(=O)N1CC[C@H](Oc2ccc3c(c2)N(c2cncc(S(C)(=O)=O)c2)CCO3)C1` [Example A37, 1-{(S)-3-[4-(5-Methanesulfonyl-pyridin-3-yl)-3,4-dihydro-2H-benzo[1,4]oxazin-6-yloxy]-pyrrolidin-1-yl}-propan-1-one], the IC50 in assay [1] is 370 nM; in assay [2], 78 nM.
The corresponding values for `CCC(=O)N1CC[C@H](Oc2ccc3c(c2)N(c2cncc(C(F)(F)F)c2)CCO3)C1` [Example A38, 1-{(S)-3-[4-(5-Trifluoromethyl-pyridin-3-yl)-3,4-dihydro-2H-benzo[1,4]oxazin-6-yloxy]-pyrrolidin-1-yl}-propan-1-one] are 343 nM and 64 nM.
The corresponding values for `CCC(=O)N1CC[C@H](Oc2ccc3c(c2)N(c2cncc(S(=O)(=O)N(C)C)c2)CCO3)C1` [Example A39, 5-[6-((S)-1-Propionyl-pyrrolidin-3-yloxy)-2,3-dihydro-benzo[1,4]oxazin-4-yl]-pyridine-3-sulfonic acid dimethylamide] are 71 nM and 9 nM.
`CCC(=O)N1CC[C@H](Oc2ccc3c(c2)N(c2ccc(C)c(C#N)c2)CCO3)C1` [Example A40, 2-Methyl-5-[6-((S)-1-propionyl-pyrrolidin-3-yloxy)-2,3-dihydro-benzo[1,4]oxazin-4-yl]-benzonitrile]: the IC50 turned out to be 5360 nM in assay [1] and 462 nM in assay [2].
With `CCC(=O)N1CC[C@H](Oc2ccc3c(c2)N(c2ccc(OC)c(C(F)(F)F)c2)CCO3)C1` [Example A41, 1-{(S)-3-[4-(4-Methoxy-3-trifluoromethyl-phenyl)-3,4-dihydro-2H-benzo[1,4]oxazin-6-yloxy]-pyrrolidin-1-yl}-propan-1-one], the values for the half-inhibitory concentration (IC50) in assay [1] and in assay [2] were 2790 nM and 296 nM, respectively.
The corresponding values for `O=C(C1CCOCC1)N1CC[C@H](Oc2ccc3c(c2)N(c2ccc(C(F)(F)F)nc2)CCO3)C1` [Example A42, (Tetrahydro-pyran-4-yl)-{(S)-3-[4-(6-trifluoromethyl-pyridin-3-yl)-3,4-dihydro-2H-benzo[1,4]oxazin-6-yloxy]-pyrrolidin-1-yl}-methanone] are 1140 nM and 30 nM.
